Data as given in patent US12458688B2, “Epitopes” (Scancell Limited, priority 2018, dated 2025).
Where no end group is shown, it is not given here. [ ]: non-standard residue; d: D form. hCit = NC(=O)NCCCC[C@H](N)C(=O)O

Key:
[1] = test system: HLA-HHDII/DR1 mice; test: Ex vivo IFNγ ELISpot after peptide immunisation, HHDII/DR1 mice; assay type: in vivo, mouse; conditions: for IFNγ ELISpot response: 3 immunisations with CpG/MPLA, day 21
Procedure: C57BL/6 mice (Charles River, UK), HLA-DR4 mice (Model #4149, Taconic, USA), HLA-A2/DR1 (HHDII/DR1, Pasteur Institute), HLA-A2.1+/+HLA-DP4+/+hCD4+/+ (HLA-HHDII/DP4) transgenic mice (EM: 02221, European Mouse Mutant Archive) described in patent WO2013/017545 A1 (EMMA repository, France) were used, aged between 8 and 12 weeks. Peptides were dissolved in PBS to 1 mg/ml and then emulsified (a series of dilutions) with CpG ODN 1826 and MPLA 6 μg/mouse of each (Invivogen, UK). Peptides (25 μg/mouse) were injected subcutaneously at the base of the tail. Mice were immunised at days 1, 7 and 14 for peptide immunisation. Spleens were removed for analysis at day 21 unless stated otherwise.
ELISpot assays were performed using murine IFNγ, IL-17 and IL-10 capture and detection reagents according to the manufacturer's instructions (Mabtech, Sweden). In brief, anti-IFNγ, IL-17 and IL-10 specific antibodies were coated onto wells of 96-well Immobilin-P plate. Synthetic peptides (at various concentrations) and 5×10^5 per well splenocytes were added to wells of the plate in quadruplicate Tumour target cells were added where relevant at 5×10^4/well in triplicate and plates incubated for 40 hrs at 37° C. After incubation, captured IFNγ, IL-10 and IL-17 were detected by biotinylated anti-IFNγ, IL-10 and IL-17 antibodies and developed with a streptavidin alkaline phosphatase and chromogenic substrate. Lipopolysaccharide (LPS; 5 μg/ml) was used as a positive control. For MHC blocking studies, anti-CD4 blocking antibody (GK1.5) or anti-CD4 blocking antibody (RPA-T4) for HHDII/DP4 mice which express human CD4 and anti-CD8 blocking antibody (2.43) from Bioxcell were used at 20 μg/ml. Spots were analysed and counted using an automated plate reader (Cellular Technologies Ltd).
Screening was performed to identify potential homocitrullinated vimentin epitopes in mice. Mice were immunised with pools of homocitrullinated peptides. […] Each pool was administered as three immunisations containing 20 μg of each peptide and CpG/MPLA as an adjuvant on day 1, 8 and 15. On day 21 the mice were culled and the immune responses to each peptide within the immunising pool were assessed by ex vivo ELISpot. Given that different mouse strains have different MHC repertoires a number of strains were used for screening. Peptide responses were assessed in transgenic strains expressing human DR4 or HHDII/DR1 in a C57BL/6 background (see methods). […]
The five selected homocitrullinated Cyk8 peptides were also screened in HHDII/DR1 transgenic mice. […] Response to Cyk8 112Hcit peptide in the HHDII/DR1 mice was lost in the presence of CD8 blocking antibody but less effect of the CD4 blocking antibody was seen (FIG. 12b). […] Responses to homocitrullinated Cyk8 peptides show both CD4 and CD8 mediated responses.

[2] = test system: B16 HHDII/DP4 tumour cells; test: Tumour therapy, B16 HHDII/DP4 tumour in HHDII/DP4 mice; assay type: in vivo, mouse; conditions: peptide with CpG/MPLA days 4, 11, 18
Excerpt: To determine if the epitopes that stimulate T cell responses are presented on MHC-II within the tumour environment, our homocitrullinated peptides were checked for tumour therapy in B16 tumour models. Mice were implanted with tumour cells on day 1 and then immunised with peptides and CpG/MPLA on days 4, 11 and 18.
HHDII/DP4 mice were challenged with B16 HHDII/DP4 tumour cells and then immunised with ALDOA homocitrulline peptides (FIG. 19c).
Next, we aimed to determine if these cell populations play a role in carbamylation in the tumour microenvironment and are therefore necessary for the anti-tumour effect. HHDII/DP4 mice were implanted with tumour and then immunised with ALDOA homocitrulline peptides. Mice where then either untreated or treated with Ly6G or Ly6C depletion antibodies to remove either the neutrophils/G-MDSCs or monocytes/M-MDSCs, respectively Peptide vaccination was associated with 100% survival whereas peptide and Ly6G+antibody was associated with a slight but significant reduction in the anti-tumour effect (80% survival, p=0.04) (FIG. 23a).
Next, antibodies were used to deplete the Ly6C+ population (FIG. 23b). Ly6C depletion alone increased survival when compared to control (20% survival, p=0.0012). For this study vaccination alone gave 80% survival (p<0.0001).

[3] = test system: PBMCs from healthy donors; test: CFSE proliferation assay, CD25-depleted PBMCs of healthy donors; assay type: cell-based, human; conditions: 10 μg/ml peptide, day 10, vs media control
Procedure: (§1) Peripheral blood samples were drawn into lithium heparin tubes (Becton Dickinson) and processed immediately following venepuncture. PBMCs were isolated by density gradient centrifugation using Ficoll-Hypaque. Proliferation and cultured ELISpot assay of PBMCs were performed immediately after isolation. For CD25 depletion PBMCs were processed as above and […] using anti-CD25 microbeads and MACS Cell Separation Columns (Miltenyi).
Briefly, a 50 μM stock solution in warm PBS was prepared from a master solution of 5 mM in dimethyl sulfoxide (DMSO). CFSE was rapidly added to PBMCs (5×10^6 cells/ml loading buffer (PBS with 5% v/v heat inactivated FCS)) to achieve a final concentration of 5 μM. PBMCs were incubated at room temperature in the dark for 5 mins after which non-cellular incorporated CFSE was removed by washing twice with excess (×10 v/v volumes) of loading buffer (300g ×10 mins). Cells were made up in complete media to 1.5×10^6/mL and plated and stimulated with vehicle (negative control), PHA (positive control, final concentration 10 μg/ml) or peptide (10 μg/ml) as described above.
On day 10, 500 μl of cells were removed from culture, washed in PBS and stained with 1:50 dilution of anti-CD4 (PE-Cy5, clone RPA-T4, ThermoFisher), anti-CD8 efluor 450, clone RPA-T8, ThermoFisher) and anti-CD134 (PE-Cy7, Clone REA621, Miltenyi). […] Stained samples were analysed immediately on a MACSQuant 10 flow cytometer equipped with MACSQuant software version 2.8.168.16380.
Determination as to the existence of a repertoire of T cells for carbamylated epitopes in humans was investigated using PBMCs from normal, healthy donors. […] Cells were labelled with CFSE and proliferation was monitored after stimulation with homocitrulline peptides. […]
Determination as to the existence of a repertoire of T cells for carbamylated Cyk8 epitopes in humans was investigated using PBMCs from seven normal, healthy donors. […] Cells were labelled with CFSE and proliferation was monitored after stimulation with Cyk8 Hcit peptides.

[4] = test system: PBMCs from cancer patients; test: CFSE proliferation assay, CD25-depleted PBMCs of cancer patients; assay type: cell-based, human; conditions: 10 μg/ml peptide, day 10, vs media control
Procedure: as §1
Briefly, a 50 μM stock solution in warm PBS was prepared from a master solution of 5 mM in dimethyl sulfoxide (DMSO). CFSE was rapidly added to PBMCs (5×10^6 cells/ml loading buffer (PBS with 5% v/v heat inactivated FCS)) to achieve a final concentration of 5 μM. PBMCs were incubated at room temperature in the dark for 5 mins after which non-cellular incorporated CFSE was removed by washing twice with excess (×10 v/v volumes) of loading buffer (300g ×10 mins). […]
On day 10, 500 μl of cells were removed from culture, washed in PBS and stained with 1:50 dilution of anti-CD4 (PE-Cy5, clone RPA-T4, ThermoFisher), anti-CD8 efluor 450, clone RPA-T8, ThermoFisher) and anti-CD134 (PE-Cy7, Clone REA621, Miltenyi). […] Stained samples were analysed immediately on a MACSQuant 10 flow cytometer equipped with MACSQuant software version 2.8.168.16380. […]

Substance	IFNγ response in presence of CD4 blocking antibody [1]	IFNγ response in presence of CD8 blocking antibody [1]	cross reactivity of Hcit response to wt peptide [1]	IFNγ ELISpot response [1]	survival [2]	CD4 T cell proliferation [3]	CD4 T cell proliferation [4]
LREYQELMNV-hcit-LALDIEI (LREYQELMNV[hCit]LALDIEI) [Cyk8 371-388 Hcit]	lost	not with the CD8 blocking antibody	minimal cross reactivity	Significant responses			
LEQQN-hcit-MLET-hcit-WSLLQQQ-hcit-T (LEQQN[hCit]MLET[hCit]WSLLQQQ[hCit]T) [Cyk8 112-131 Hcit]	less effect	lost	minimal cross reactivity	Significant responses			
hcit-DGADFA-hcit-WRCVL-hcit-IGEH ([hCit]DGADFA[hCit]WRCVL[hCit]IGEH) [Aldolase A 140-157 Hcit]			significantly higher	stimulated responses	60%	significant CD4 proliferation	
NYID-Hcit-VRFLEQQN-Hcit-ILLAEL (NYID[hCit]VRFLEQQN[hCit]ILLAEL) [Vimentin 116-135 Hcit]	significantly decreased	not in the presence of the CD8 blocking antibody	no cross reactivity	significant response		significant CD4 proliferation	just short of significance
IGGVILFHETLYQ-hcit-ADDGRP (IGGVILFHETLYQ[hCit]ADDGRP) [Aldolase A 74-93 Hcit]					90%	significant CD4 proliferation	significant proliferative responses
